Assay [1] concerns the target T1, TNFα / TNFα receptor (TNFα R1/Fc) (Homo sapiens, UniProt P01375).
T1 construct: purchased R&D Systems
The experiment in a line: Inhibition of binding of TNFα to the TNFα receptor (plate ELISA competition). As to conditions: Table 2. The essentials:
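Compound dilutions were preincubated 30 min at RT with 8.33 nM TNFα R1/Fc in PBST with 2% DMSO, then added to wells coated with 15 nM TNFα for 30 min. Bound receptor was detected with HRP anti-human Fc and TMB, read as A450.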

The subject of assay [2] is rat paw edema model. Nature of the assay: Rat paw edema model (carrageenan), anti-inflammatory activity. The settings on record: 1 mg/kg IV. The format is in vivo, Sprague-Dawley (SD) rats. As to the method:
Compounds 3, 4, 10 and 202 were tested in a rat paw edema model to determine anti-inflammatory activity. Seven groups (one for Vehicle A [15 mL PEG400, 3 mL Graves Grain alcohol (190 proof), 1.8 mL dimethylacetamide and 10.2 mL deionized water] alone as a negative control, one for Vehicle B [0.1M NaHCO3] alone as a negative control, one for each of the four test compounds dissolved in Vehicle A, and one for indomethacin dissolved in Vehicle B as a positive control), each group containing six Sprague-Dawley (SD) rats (180-200 g) randomized by weight. Initial paw volumes were measured by placing the right hind limb of the rat up to the top of the hock in a beaker of water sitting on a scale that had been tared to zero and recording the readout.
Rats were pre-treated with either i) one of the test compounds, or ii) a positive or negative control. Vehicle A alone and test compound dissolved in Vehicle A (Compound 3-1.0 mg/kg; Compound 4-0.4 mg/kg; Compound 10-0.5 mg/kg; Compound 202-0.3 mg/kg) were administered by intravenous injection. Vehicle B alone and indomethacin (5 mg/kg in 0.1M NaHCO3) was administered by intraperitoneal injection. Thirty minutes after this pretreatment, rats were anesthetized and injected with 0.1 mL of carrageenan (10 mg/mL in water) in the subplantar region of the right hind foot using a ½ inch 26 gauge needle attached to a 1 cc syringe.
At 2, 4 and 6 hours post-carrageenan injection, the right hind foot of each rat was measured for paw volume as described above.
We next investigated the effect of varying intravenous doses of Compound 202 (0.05, 0.10, 0.30, and 1.00 mg/kg) in the same model using the same protocol (6 rats per group). […] We also investigated the affect of oral dosing (10 mg/kg) of Compound 202 in the same model. For oral dosing, a 2.5 mg/mL suspension of Compound 202 was prepared in Vehicle A. Rats were orally administered 4 mL/kg of that suspension.

The test system of assay [3] is TNF-α (degradation of IkB in HeLa cells or A431 cells). The experiment in a line: Human cell-based assay: inhibition of TNF-α induced degradation of IkB. As to conditions: for inhibition at 5 µM: read-out: Inhibition at Various Compound Concentrations, 5 μM; for inhibition at 10 µM: read-out: Inhibition at Various Compound Concentrations, 10 μM.
The mark [4] stands for this setting: read-out: Activity (IC50, inhibition of TNFα binding to TNFα R1/Fc).
The mark [5] stands for this setting: 5 μM compound, HeLa or A431 cells.
The mark [6] stands for this setting: 10 μM compound, HeLa or A431 cells.

Where two headings read alike, the source gives them in different places.

T1 sequence (P01375 77-233 limits assumed, species assumed): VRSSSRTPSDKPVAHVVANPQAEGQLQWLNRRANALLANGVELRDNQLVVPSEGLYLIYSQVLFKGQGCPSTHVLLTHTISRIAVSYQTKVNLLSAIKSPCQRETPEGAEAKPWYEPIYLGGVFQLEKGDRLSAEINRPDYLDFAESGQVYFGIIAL

With `O=C1COc2ccc(cc2)C[C@@H](C(=O)N[C@@H](Cc2ccccc2)C(=O)O)NC(=O)[C@@H](CCc2ccccc2)NC(=O)[C@H](Cc2ccc(-c3ccccc3)cc2)NC(=O)[C@@H](Cc2cccs2)N1` [Compound 156], in assay [1] (Activity (IC50, inhibition of TNFα binding to TNFα R1/Fc)), the IC50 was under 10 µM. Besides, the “Change in Paw Volume” value in assay [2] (Table 7, 2 h post-carrageenan) is 1.49 ± 0.24 mL; in assay [2] (Table 7, 4 h post-carrageenan), 1.51 ± 0.12 mL; in assay [2] (Table 7, 6 h post-carrageenan) it was 1.81 ± 0.16 mL. In assay [3], the inhibition at 5 µM fell in the range of 50 to 80%. Also, in assay [3], the inhibition at 10 µM was over 80%.

Turning to `O=C(O)[C@H](Cc1ccccc1)NC(=O)[C@@H]1Cc2ccc(cc2)NC(=O)[C@H](O)[C@@H](O)C(=O)N[C@H](Cc2cccs2)C(=O)N[C@@H](Cc2ccc(-c3ccccc3)cc2)C(=O)N[C@H](Cc2ccccc2)C(=O)N1` [Compound 174], the IC50 in assay [1] (setting [4]) was under 10 µM. Moreover, the “Change in Paw Volume” value in assay [2] (Table 7, 2 h post-carrageenan) is listed as 1.22 ± 0.08 mL; in assay [2] (Table 7, 4 h post-carrageenan) it was 1.53 ± 0.13 mL; in assay [2] (Table 7, 6 h post-carrageenan) it was 1.70 ± 0.22 mL. Moreover, the inhibition at 5 µM in assay [3] (setting [5]) was under 10%. Moreover, in assay [3] (setting [6]), the inhibition at 10 µM lay within 10 to 50%.

As to `O=C(O)[C@@H]1Cc2ccc(cc2)NC(=O)[C@H](O)[C@@H](O)C(=O)N[C@@H](Cc2cccs2)C(=O)N[C@@H](Cc2ccc(-c3ccccc3)cc2)C(=O)N[C@@H](Cc2ccccc2)C(=O)N1` [Compound 273], in assay [1] (setting [4]), the IC50 was over 100 µM. The “Change in Paw Volume” value in assay [2] (Table 7, 2 h post-carrageenan) was found to be 1.13 ± 0.09 mL; in assay [2] (Table 7, 4 h post-carrageenan), 1.52 ± 0.12 mL; in assay [2] (Table 7, 6 h post-carrageenan), 1.59 ± 0.16 mL. In addition, the inhibition at 5 µM in assay [3] (setting [5]) lay within 10 to 50%. In addition, the inhibition at 10 µM in assay [3] (setting [6]) is under 10%.

`O=C(O)[C@@H]1Cc2ccc(cc2)NC(=O)[C@H](O)[C@@H](O)C(=O)N[C@H](Cc2cccs2)C(=O)N[C@@H](Cc2ccc(-c3ccncc3)cc2)C(=O)N[C@H](Cc2ccccc2)C(=O)N1` [Compound 330]: in assay [1] (setting [4]), the IC50 is under 10 µM. Moreover, the “Change in Paw Volume” value in assay [2] (Table 6, 2 h post-carrageenan) is 1.20 ± 0.20 mL; in assay [2] (Table 6, 4 h post-carrageenan) it was 1.32 ± 0.17 mL; in assay [2] (Table 6, 6 h post-carrageenan), 1.33 ± 0.22 mL. For the same compound, the inhibition at 5 µM in assay [3] (setting [5]) is over 80%. Further, in assay [3] (setting [6]), the inhibition at 10 µM was 10 to 50%.

Consider `O=C(O)CCCNC(=O)[C@@H]1Cc2ccc(cc2)OCC(=O)N[C@@H](Cc2cccs2)C(=O)N[C@@H](Cc2ccc(-c3ccccc3)cc2)C(=O)N[C@@H](Cc2ccccc2)C(=O)N1` [Compound 342], for which the IC50 in assay [1] (setting [4]) is under 10 µM. For the same compound, the “Change in Paw Volume” value in assay [2] (Table 4, 2 h post-carrageenan) came to 1.36 ± 0.10 mL; in assay [2] (Table 4, 4 h post-carrageenan), 1.49 ± 0.20 mL; in assay [2] (Table 4, 6 h post-carrageenan) it was 1.51 ± 0.15 mL. In assay [3] (setting [5]), the inhibition at 5 µM is under 10%. In addition, the inhibition at 10 µM in assay [3] (setting [6]) lay within 10 to 50%.

As to `CC(C)(C)Oc1ccc(C[C@@H]2NC(=O)[C@@H](Cc3ccc(-c4ccccc4)cc3)NC(=O)[C@H](Cc3cccs3)NC(=O)COc3ccc(cc3)C[C@@H](C(=O)O)NC2=O)cc1` [Compound 346], the IC50 in assay [1] (setting [4]) was under 10 µM. Further, the “Change in Paw Volume” value in assay [2] (Table 6, 2 h post-carrageenan) stood at 1.17 ± 0.06 mL; in assay [2] (Table 6, 4 h post-carrageenan) it was 1.20 ± 0.09 mL; in assay [2] (Table 6, 6 h post-carrageenan), 1.34 ± 0.09 mL. Also, in assay [3], the inhibition at 5 µM was over 80%. In addition, the inhibition at 10 µM in assay [3] is 50 to 80%.

With `O=C1COc2ccc(cc2)C[C@@H](C(=O)O)NC(=O)[C@H](CCc2ccccc2)NC(=O)[C@@H](Cc2ccc(-c3ccccc3)cc2)NC(=O)[C@H](Cc2cccs2)N1` [Compound 348], the IC50 in assay [1] (setting [4]) is under 10 µM. The “Change in Paw Volume” value came out at 1.13 ± 0.10 mL in assay [2] (Table 6, 2 h post-carrageenan); 1.30 ± 0.20 mL in assay [2] (Table 6, 4 h post-carrageenan); 1.32 ± 0.11 mL in assay [2] (Table 6, 6 h post-carrageenan). The inhibition at 5 µM in assay [3] (setting [5]) was in the range of 10 to 50%. For the same compound, the inhibition at 10 µM in assay [3] (setting [6]) fell in the range of 50 to 80%.

Values taken from patent US8338565B2, “Macrocyclic compounds for inhibition of tumor necrosis factor alpha” (Ensemble Therapeutics Corporation, priority 2008, dated 2012).
